These are literature values, as cited in patent publication US20260108502A1, “ORAL DELIVERY FORMULATIONS USING SELF EMULSIFYING GRANULES AND LIPID BASED GRANULES” (BOARD OF REGENTS, THE UNIVERSITY OF TEXAS SYSTEM, priority 2024, published 2026).

With `CC(C)c1nc(CN(C)C(=O)N[C@H](C(=O)N[C@@H](Cc2ccccc2)C[C@H](O)[C@H](Cc2ccccc2)NC(=O)OCc2cncs2)C(C)C)cs1` [Ritonavir], the “strongest basic pKa” value was 2.84.
